Source: PMC12521615, “Accurate affinity models for SH2 domains from peptide binding assays and free‐energy regression” (Protein Science : A Publication of the Protein Society, 2025)
pKd: −log10 of the molar value. Non-standard residues stand in square brackets, D forms with d. Residues, ends and D or L forms follow the SMILES beside them. pY = N[C@@H](Cc1ccc(OP(=O)(O)O)cc1)C(=O)O

Columns and labels:
Grb2 SH2 domain = Grb2 SH2 domain (Homo sapiens, UniProt P62993); assay: biochemical
Source text: Measured binding constants (K D) from competition mode fluorescence polarization experiments were obtained using the purified SH2 domains used for the selection and chosen sets of peptides with a phosphorylated tyrosine exactly as described previously (Li et al., [2023]). […] (c‐Src SH2 consensus) was used as the probe, and for the Grb2 SH2 domain, the fluorescently labeled peptide FITC‐Ahx‐FDDPS(pY)VNVQN (Ahx = 6‐aminohexanoic acid) from the Y177 phospho‐tyrosine site of BCR. Before performing the competition mode fluorescence polarization measurement, the K D of the probes for the respective SH2 domains was first measured in a direct mode of fluorescence polarization. […] For the set of peptides where single point mutations were compared, phosphopeptides reported in the PhosphoSitePlus database (Hornbeck et al., [2015]) and previously shown to bind to the c‐Src SH2 domain (Li et al., [2023]) were chosen alongside their respective single point mutants. To choose phosphopeptides for validation of the Lyn SH2 domain, we started from all verified phosphopeptides found in PhosphoSitePlus, filtered based on their co‐expression with the Lyn kinase using the STRING database. Using the validation data for the Fyn SH2 domain, the range of predicted relative binding affinities that corresponds to the range between 1 nM and 100 μM, which is the dynamic range of reliable measurement of absolute binding affinities using our competitive fluorescence polarization setup, was defined and used to further filter the set of candidate phosphopeptides. A subset that evenly covers the chosen range of predicted relative affinities was finally picked for the validation measurements of the Lyn SH2 domain. For the c‐Src, Yes, and Blk SH2 domains, a combination of the previously chosen peptides was used, after verifying that their predicted relative affinities for the given SH2 domain fell within the same measurable range. All peptides containing phosphorylated tyrosine, both fluorescently labeled and non‐labeled, were produced by SynPeptide (China).

c-Src SH2 domain = target: T1, c-Src SH2 domain (Homo sapiens, UniProt P12931); assay: competitive fluorescence polarization, c-Src SH2 domain; format: binding; details: Table S3, unpaired validation; competition fluorescence polarization; probe FITC-Ahx-GDG-pY-EEISPLLL-NH2 30 nM; [SH2] 123-126 nM; mean
T1 construct: the SH2 domain from c‐Src kinase; His6-SUMO (N, cleaved yes); host or cells: Escherichia coli C43(DE3) with BirA helper plasmid
T1 sequence (P12931 151-248 limits assumed): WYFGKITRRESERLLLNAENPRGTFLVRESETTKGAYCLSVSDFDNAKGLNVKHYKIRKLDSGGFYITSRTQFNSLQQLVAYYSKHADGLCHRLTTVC
Source text: Measured binding constants (K D) from competition mode fluorescence polarization experiments were obtained using the purified SH2 domains used for the selection and chosen sets of peptides with a phosphorylated tyrosine exactly as described previously (Li et al., [2023]). […] Before performing the competition mode fluorescence polarization measurement, the K D of the probes for the respective SH2 domains was first measured in a direct mode of fluorescence polarization. […] Using the validation data for the Fyn SH2 domain, the range of predicted relative binding affinities that corresponds to the range between 1 nM and 100 μM, which is the dynamic range of reliable measurement of absolute binding affinities using our competitive fluorescence polarization setup, was defined and used to further filter the set of candidate phosphopeptides. A subset that evenly covers the chosen range of predicted relative affinities was finally picked for the validation measurements of the Lyn SH2 domain.

Chain of Grb2 SH2 domain (P62993 60-152 limits assumed): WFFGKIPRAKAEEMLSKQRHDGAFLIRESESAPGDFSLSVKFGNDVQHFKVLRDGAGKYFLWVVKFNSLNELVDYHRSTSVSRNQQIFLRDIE

Row | Structure (SMILES) | pKd (Grb2 SH2 domain) | pKd (c-Src SH2 domain)
1 | CC(=O)N[C@@H](CCC(N)=O)C(=O)N[C@@H](CCCCN)C(=O)N[C@@H](CCC(=O)O)C(=O)N[C@@H](C)C(=O)N[C@@H](Cc1c[nH]cn1)C(=O)N[C@@H](Cc1c[nH]cn1)C(=O)N[C@@H](Cc1ccc(OP(=O)(O)O)cc1)C(=O)N[C@H](C(=O)N[C@@H](CC(N)=O)C(=O)N[C@@H](Cc1c[nH]c2ccccc12)C(=O)N[C@@H](CCCNC(=N)N)C(=O)N[C@H](C(=O)NCC(N)=O)[C@@H](C)O)C(C)C [Syn-G2-1] (Ac-QKEAHH[pY]VNWRTG-NH2) | 7.50 | 5.02
2 | CC[C@H](C)[C@H](NC(=O)[C@H](CC(N)=O)NC(=O)[C@H](Cc1c[nH]cn1)NC(=O)[C@H](CCC(N)=O)NC(C)=O)C(=O)N[C@@H](Cc1c[nH]cn1)C(=O)N[C@@H](CO)C(=O)N[C@@H](Cc1ccc(OP(=O)(O)O)cc1)C(=O)N[C@H](C(=O)N[C@@H](CC(N)=O)C(=O)N[C@H](C(=O)N1CCC[C@H]1C(=O)N1CCC[C@H]1C(=O)NCC(N)=O)[C@@H](C)CC)[C@@H](C)CC [Syn-G2-2] (Ac-QHNIHS[pY]INIPPG-NH2) | 8.40 | 
3 | CC[C@H](C)[C@H](NC(=O)[C@H](CC(N)=O)NC(=O)[C@H](Cc1c[nH]cn1)NC(=O)[C@H](Cc1ccc(OP(=O)(O)O)cc1)NC(=O)[C@H](CCCNC(=N)N)NC(=O)[C@H](CCC(N)=O)NC(=O)[C@H](Cc1c[nH]cn1)NC(=O)CNC(=O)[C@H](CC(C)C)NC(=O)[C@H](CCC(N)=O)NC(C)=O)C(=O)N[C@H](C(=O)N1CCC[C@H]1C(=O)NCC(N)=O)[C@@H](C)O [Syn-G2-5] (Ac-QLGHQR[pY]HNITPG-NH2) | 6.31 | 
